In publication PMC5957530 (FEBS letters, 2017):
Where two headings read alike, the source gives them in different places.

B1: O-acetylserine sulfhydrylase-A (CysK) from E. coli (enzyme, UniProt P0ABK5 1-323, looked up)
chain: MSKIFEDNSLTIGHTPLVRLNRIGNGRILAKVESRNPSFSVKCRIGANMIWDAEKRGVLKPGVELVEPTSGNTGIALAYVAAARGYKLTLTMPETMSIERRKLLKALGANLVLTEGAKGMKGAIQKAEEIVASNPEKYLLLQQFSNPANPEIHEKTTGPEIWEDTDGQVDVFIAGVGTGGTLTGVSRYIKGTKGKTDLISVAVEPTDSPVIAQALAGEEIKPGPHKIQGIGAGFIPANLDLKLVDKVIGITNEEAISTARRLMEEEGILAGISSGAAVAAALKLQEDESFTNKNIVVILPSSGERYLSTALFADLFTEKELQQ
modifications: bound pyridoxal 5'-phosphate (PLP) cofactor

Key:
CysK = CysK (Escherichia coli, UniProt P0ABK5); assay: Fluorescence titration of CysK; type: binding; conditions: in the presence of 10 μM L-Cys
plant CysE = plant CysE in the CSC vs free; cited from earlier work
[1] = target: T1, cysteine synthase complex (CSC; E. coli CysE in complex with E. coli CysK) (Escherichia coli, UniProt P0A9D4); assay: L-Ser acetylation steady-state kinetics of CysE in complex with CysK; conditions: for apparent kcat: per CysE hexamer
T1 sequence (P0A9D4 1-273): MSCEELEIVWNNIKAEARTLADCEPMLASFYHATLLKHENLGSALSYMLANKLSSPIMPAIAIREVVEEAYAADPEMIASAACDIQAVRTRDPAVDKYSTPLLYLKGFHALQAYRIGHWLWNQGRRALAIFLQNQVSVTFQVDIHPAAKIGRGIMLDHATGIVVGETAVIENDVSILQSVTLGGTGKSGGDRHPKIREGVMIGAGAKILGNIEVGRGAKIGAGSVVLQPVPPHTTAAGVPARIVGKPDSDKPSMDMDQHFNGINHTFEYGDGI
T1 sequence (P0ABK5 1-323 partner): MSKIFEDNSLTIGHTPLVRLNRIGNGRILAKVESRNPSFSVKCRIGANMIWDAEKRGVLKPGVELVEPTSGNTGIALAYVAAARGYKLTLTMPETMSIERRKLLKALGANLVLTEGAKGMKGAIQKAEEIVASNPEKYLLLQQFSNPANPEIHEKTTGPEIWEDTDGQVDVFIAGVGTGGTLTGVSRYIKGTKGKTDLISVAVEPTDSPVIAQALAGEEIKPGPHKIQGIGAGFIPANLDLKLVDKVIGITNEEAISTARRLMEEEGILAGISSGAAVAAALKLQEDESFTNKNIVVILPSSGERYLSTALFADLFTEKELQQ

Escherichia coli CysE = target: T2, Escherichia coli CysE (Escherichia coli, UniProt P0A9D4); assay: L-Ser acetylation steady-state kinetics of isolated CysE; conditions: for apparent kcat: per CysE hexamer
T2 sequence (P0A9D4 1-273): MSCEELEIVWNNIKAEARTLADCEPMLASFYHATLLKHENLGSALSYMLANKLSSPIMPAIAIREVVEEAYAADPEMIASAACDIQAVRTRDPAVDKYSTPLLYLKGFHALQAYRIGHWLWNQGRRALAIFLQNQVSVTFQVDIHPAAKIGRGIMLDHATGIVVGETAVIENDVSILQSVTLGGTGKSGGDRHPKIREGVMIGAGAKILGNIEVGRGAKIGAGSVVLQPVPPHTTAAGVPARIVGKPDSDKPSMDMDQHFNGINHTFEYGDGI

SEC = target: the molecule itself; assay: SEC
[2] = substrate: N[C@@H](CO)C(=O)O; assay: purified protein, by the assay type; conditions: 20.0 °C
[3] = target: B1; assay: other fluorescence titration
[4] = target: B1; assay: inhibition of enzyme activity

N[C@@H](CS)C(=O)O [L-Cys, L-cysteine]
fold increase in the dissociation constant of the CSC (CysK): 10 fold | fold increase of L-Cys Ki of plant CysE in the CSC (plant CysE): more than 35 fold | increase in L-Cys IC50 of plant CysE in the CSC (plant CysE): fourfold | IC50 [1]: 0.7 µM | increase of L-Cys IC50 in the CSC vs free CysE ([1]; presence of molar excess CysK): fourfold | IC50 (Escherichia coli CysE; IC50 for L-Cys, free CysE): 0.18 µM | IC50 (Escherichia coli CysE; L-Cys concentration around the IC50, 0.1 mM L-Ser (physiological), Fig. S5B): ~0.07 µM | IC50 (Escherichia coli CysE; L-Cys concentration around the IC50, 20 mM L-Ser (saturating), Fig. S5B): ~0.5 µM

N[C@@H](CO)C(=O)O [L-Ser, L-serine]
Kd [1]: 600 ± 200 µM | Ki [1]: 16000 ± 5000 µM | apparent kcat ([1]; +CysK fivefold molar excess, L-Ser varied, acetyl-CoA […]): 228 ± 34 s⁻¹ | increase in the L-Ser inhibition constant, CSC vs free CysE ([1]; CysE in complex with CysK): four fold | Kd (Escherichia coli CysE): 500 ± 200 µM | apparent kcat (Escherichia coli CysE; -CysK, L-Ser varied, acetyl-CoA […]): 228 ± 60 s⁻¹

CC(=O)SCCNC(=O)CCNC(=O)[C@H](O)C(C)(C)COP(=O)(O)OP(=O)(O)OC[C@H]1O[C@@H](n2cnc3c(N)ncnc32)[C@H](O)[C@@H]1OP(=O)(O)O [Acetyl-CoA, acetyl-CoA]
apparent kcat ([1]; +CysK fivefold molar excess, acetyl-CoA varied, L-Ser 20 mM): 416 ± 38 s⁻¹ | Km ([1]; read-out: KM,acCoA, +CysK fivefold molar excess, global fit Eqn 2): 300 ± 100 µM | Kd ([1]; read-out: Kd,acCoa, +CysK fivefold molar excess, global fit Eqn 2): 100 ± 100 µM | apparent kcat (Escherichia coli CysE; -CysK, acetyl-CoA varied, L-Ser 20 mM): 306 ± 35 s⁻¹ | Km (Escherichia coli CysE; read-out: KM,acCoA, -CysK, global fit Eqn 2): 300 ± 100 µM | Kd (Escherichia coli CysE; read-out: Kd,acCoa, -CysK, dissociation from unligated enzyme, global fit Eqn 2): 100 ± 100 µM | Km (Escherichia coli CysE; read-out: apparent KM, -CysK, acetyl-CoA varied, L-Ser 20 mM, 20 °C): 1400 ± 400 µM

B1
stoichiometry N (SEC): 2

B2: Escherichia coli CysE (Escherichia coli K-12) (protein)
chain: MSCEELEIVWNNIKAEARTLADCEPMLASFYHATLLKHENLGSALSYMLANKLSSPIMPAIAIREVVEEAYAADPEMIASAACDIQAVRTRDPAVDKYSTPLLYLKGFHALQAYRIGHWLWNQGRRALAIFLQNQVSVTFQVDIHPAAKIGRGIMLDHATGIVVGETAVIENDVSILQSVTLGGTGKSGGDRHPKIREGVMIGAGAKILGNIEVGRGAKIGAGSVVLQPVPPHTTAAGVPARIVGKPDSDKPSMDMDQHFNGINHTFEYGDGI
Km ([2]; other: -CysK, L-Ser varied, acetyl-CoA […]): 1700 ± 700 µM | Km ([2]; other: -CysK, global fit, random-order mechanism (Eqn 2)): 1300 ± 200 µM

B3: cysteine synthase complex (CSC; E. coli CysE in complex with E. coli CysK) (Escherichia coli K-12) (protein)
chain: MSCEELEIVWNNIKAEARTLADCEPMLASFYHATLLKHENLGSALSYMLANKLSSPIMPAIAIREVVEEAYAADPEMIASAACDIQAVRTRDPAVDKYSTPLLYLKGFHALQAYRIGHWLWNQGRRALAIFLQNQVSVTFQVDIHPAAKIGRGIMLDHATGIVVGETAVIENDVSILQSVTLGGTGKSGGDRHPKIREGVMIGAGAKILGNIEVGRGAKIGAGSVVLQPVPPHTTAAGVPARIVGKPDSDKPSMDMDQHFNGINHTFEYGDGI
Km ([2]; other: +CysK fivefold molar excess, L-Ser varied, acetyl-CoA […]): 1100 ± 400 µM | Km ([2]; other: +CysK fivefold molar excess, global fit Eqn 2): 1200 ± 200 µM

B4: serine acetyltransferase (CysE) from E. coli (enzyme, UniProt P0A9D4 1-273, looked up)
chain: MSCEELEIVWNNIKAEARTLADCEPMLASFYHATLLKHENLGSALSYMLANKLSSPIMPAIAIREVVEEAYAADPEMIASAACDIQAVRTRDPAVDKYSTPLLYLKGFHALQAYRIGHWLWNQGRRALAIFLQNQVSVTFQVDIHPAAKIGRGIMLDHATGIVVGETAVIENDVSILQSVTLGGTGKSGGDRHPKIREGVMIGAGAKILGNIEVGRGAKIGAGSVVLQPVPPHTTAAGVPARIVGKPDSDKPSMDMDQHFNGINHTFEYGDGI
stoichiometry N [3]: ~1.6 CysE:CysK | stoichiometry N (SEC): 6 | Ki app [4]: 0.0087 ± 0.001 µM
